{"source": "patent US6255347A", "about": "(priority 1997, dated 2001)", "key": {"[1]": {"test_system": "risk of AD", "conditions": "in vivo; cited from earlier work"}, "[2]": {"test_system": "human neoplastic diseases", "conditions": "cited from earlier work"}, "[3]": {"conditions": "cited from earlier work"}, "[4]": {"assay": "Chiral inversion of R- to S-ibuprofen in culture (HPLC)", "format": "in vitro ADME", "conditions": "NIH 3T3 culture", "protocol": "The concentration of the enantiomers of ibuprofen in cell culture media was determined by an HPLC procedure previously described for the enantiomers of ketoprofen (Grubb et al., 1996). The HPLC column consisted of a 5 μm (S,S)-Whelk-O1 stationary phase (250 mm×4.6 mm; Regis Technologies, Morton Grove, Ill.) eluted with a mobile phase of hexane/isopropyl alcohol/acetic acid (98/2/0.05) flowing at 0.8 ml/ min. […] Quantitation was achieved using peak area ratios with R-flurbiprofen as internal standard and ultraviolet absorbance at 254 nm. The limit of quantitation was set at 100 ng/ml."}, "[5]": {"test_system": "rat stomach and duodenum", "assay": "Gastric ulcer index / gastroduodenal lesions in rat", "format": "in vivo", "protocol": "Male Sprague-Dawley rats (12 month) were obtained from Harlan-Sprague-Dawley, Inc. (Indianapolis, Ind.) and housed under controlled conditions of temperature humidity and light/dark cycle. […] Rat blood, brain and 50 μl of cerebrospinal fluid were collected and stored at -70° C. for APPs and PKC analysis by Western blotting. Rat stomach and duodenum were collected for the quantitation of gastroduodenal lesions.\nThe rat stomach and first 12 cm of the duodenum were opened and carefully shed with saline to remove any residual debris and fixed in 10% buffered formaldehyde. Tissues were examined macroscopically (×10) for lesions and hemorrhages. The evaluation of lesions or hemorrhages was based on the ulcer index (UI) reported by Leyck et al. (1985) and expressed as the sum total of lesions per treatment. The scoring units used ranged from 0 to 5, where zero represents no macroscopically visible lesions; 1 represents one to three small ulcers less than 4 mm; 2 represents more than three small ulcers; 3 represents ulcer hemorrhages with several small ulcers; 4 represents large (>4 mm) ulcers; 5 indicates tissue perforation."}, "[6]": {"biological_target": "T1, PKC (Rattus norvegicus, UniProt P05696)", "T1 construct": "Partially purified PKCα from rat brain; purchased Promega (Madison, Wis.); host or cells: rat brain (tissue enzyme, partially purified)", "assay": "Protein kinase C activity assay (histone phosphorylation, partially purified rat brain PKC)", "format": "biochemical", "conditions": "PMA stimulated; for concentration inhibiting PKC mediated histone phosphorylation: 2 min, 30° C.", "protocol": "The following were obtained from the Sigma Chemical Co. (St. […] Anti-PKCα antibody (affinity purified) and its C-terminal region peptide was obtained from Life Technologies (Gaithersburg, Md.). […] All other chemicals were of the highest available purity and were obtained from standard commercial sources. […] Following 2 min initial incubation at 30° C., kinase reactions were initiated by the addition of ^32 P-γ-ATP and enzyme and continued at 30° C. for 2 min. Control incubations contained all assay components except enzyme and ibuprofen. […] All samples were carried out in duplicate."}, "[7]": {"test_system": "cyclooxygenase", "conditions": "cited from earlier work"}, "[8]": {"test_system": "NIH 3T3 cells", "assay": "Foci formation assay, inhibition of PMA induced neoplastic transformation of NIH 3T3 cells", "format": "cell-based", "conditions": "PMA 0.02 μg/ml, 2% FBS; for inhibition of PMA induced foci formation / neoplastic transformation: 6 weeks, ibuprofen 10 or 100 μg/ml", "protocol": "(§1) NIH 3T3 cells (American Type Culture Collection, Rockville, Md.) were cultured in DMEM supplemented with 10% FBS inoculated at 10^4 cells/35 […] dish. […] PMA and ibuprofen were dissolved in DMSO and stored in 5% DMSO stock solutions that were diluted a 1000-fold with culture media prior to use. […] The media containing freshly added PMA and ibuprofen were changed every 60 hours for both the foci formation assay and PKCα analysis by Western blot.\nSubsequent to washing with a tris/ saline buffer, the cells were stained with a solution of 4% aqueous Giemsa stain in phosphate buffer (pH 7.0). Foci of transformed cells were then visible by eye due to their high local density and verified by under light microscopy."}, "[9]": {"test_system": "PKCα", "assay": "PKCα translocation in NIH 3T3 cells (subcellular fractionation, Western blot)", "format": "cell-based", "conditions": "10 μg/ml; for inhibition of PKCα translocation from cytosol to nuclear compartments: PMA 4 hours; for inhibition of PKCα translocation, racemate versus enantiomers: particularly 2 weeks of PMA", "protocol": "as §1\nThe cells were washed twice with phosphate-buffered saline (PBS) at 37° C. and subsequently lysed and scraped in 1 ml ice-cold protein lysis buffer (20 mM Tris-HCl, pH7.4, 2 mM EGTA, 2 mM EDTA, […] leupeptin and […] aprotinin) at 4° C. […] Briefly, cells were homogenized 10× in 15 ml glass homogenizer with a tight-fitting pestle and centrifuged at 900×g for 10 min. The resulting supernatant was then centrifuged at 100,000×g for 60 min to produce a nucleus-free membrane fraction (pellet) and a cytosol fraction (supernatant) for Western blots. The 900×g nuclear pellet was suspended in the 2 ml lysis buffer containing 10% sucrose and 0.1% Triton X-100 and washed twice by centrifuging at 1000×g for 10 min, then resuspended in 1 ml of the same buffer without Triton X-100 for Western blots. The purity of the fractions was monitored by light microscopy. […] The samples were stored at -70° C. until analysis.\n15 μl of human plasma, 15 μl of rat plasma, CSF or 50 μg of rat brain protein were denatured with 35 μl of sample buffer at 95° C. for 4 min. Denatured proteins were separated by 10% SDS-polyacrylamide gel electrophoresis with a 50 μg or 20 μg protein load for each sample for APPs or PKC, respectively, and electrophoretically transferred from gel to nitrocellulose membrane. […] The immunoreactive bands were developed using enhanced chemilumenescence (ECL. Amersham Life Sci., Little Chalfont, UK), following extensive washing with the blocking buffer. The PKC bands were verified in each case by competitively blocking the signal with the peptide corresponding to each of PKCs. The bands were quantitated by scanning densitometry. Quantitative comparisons were made between samples processed simultaneously on one blot."}, "[10]": {"test_system": "APPs secretion by NIH 3T3 cell lines", "conditions": "50 μM; for Density of APPs band: 20 h culture, n = 2, mean ± S.D."}, "[11]": {"test_system": "APPs secretion by NIH 3T3 cell lines", "assay": "cells", "conditions": "Mus musculus, NIH3T3, 20 h, read-out: fold increase of APPs secretion"}, "[12]": {"conditions": "cited from earlier work", "remark": "listed apart in the source"}, "[13]": {"test_system": "APP", "conditions": "via activation of PKC; cited from earlier work"}, "[14]": {"test_system": "animal tumors", "conditions": "in vivo; cited from earlier work"}}, "note": "Entries after “also recorded” stand apart in the source; their conditions may differ."}
{"smiles": "CC(=O)Nc1ccc(O)cc1", "note": "[acetaminophen]", "values": [{"measurement": "association with decreased risk of AD", "setting": "[1]", "value": "not associated"}]}
{"smiles": "CC[C@]1(O)C[C@@H]2CN(CCc3c([nH]c4ccccc34)[C@@](C(=O)OC)(c3cc4c(cc3OC)N(C)[C@H]3[C@@](O)(C(=O)OC)[C@H](OC(C)=O)[C@]5(CC)C=CCN6CC[C@]43[C@@H]65)C2)C1", "note": "[Vinblastine]", "values": [{"measurement": "cases with significant improvement", "setting": "[2]; lymphomas, particularly Hodgkin's disease", "value": "50 to 90", "unit": "%"}, {"measurement": "excreted in urine", "setting": "[3]; in vivo", "value": "Approximately 15%"}, {"measurement": "recovered in the feces", "setting": "[3]; in vivo", "value": "about 10%"}]}
{"smiles": "CC(C)Cc1ccc([C@@H](C)C(=O)O)cc1", "note": "[R-ibuprofen]", "values": [{"measurement": "inversion of R- to S-ibuprofen", "setting": "[4]", "value": "No inversion of R- to S-ibuprofen was detectable; also recorded: did not occur"}, {"measurement": "gastric ulcers, incidence", "setting": "[5]; rat, in vivo", "value": "one small gastric ulcer in 2 out of 4 rats"}, {"measurement": "ulcers larger than 4 mm", "setting": "[5]; rat, in vivo", "value": "no ulcer larger than 4 mm"}, {"measurement": "concentration inhibiting PKC mediated histone phosphorylation", "setting": "[6]", "value": 1, "unit": "µM"}, {"measurement": "inhibition at 20 µM", "setting": "[6]; read-out: maximal inhibition of PKC activity, at 20 μM", "value": 53, "unit": "%"}, {"measurement": "capability to inhibit cyclooxygenase (in words)", "setting": "[7]", "value": "very weak capability to inhibit cyclooxygenase"}, {"measurement": "inhibition of foci formation, enantiomers compared to racemate", "setting": "[8]", "value": "more pronounced than that of the racemate; also recorded: more effective than the racemic mixture"}, {"measurement": "inhibition of PMA induced foci formation / neoplastic transformation", "setting": "[8]", "value": "dramatically decreased; also recorded: inhibit the neoplastic transformation; also recorded: substantially inhibited"}, {"measurement": "inhibition of PKCα translocation compared to antipode", "setting": "[9]; 4 hours PMA", "value": "more effective than its antipode"}, {"measurement": "inhibition of PKCα translocation from cytosol to nuclear compartments", "setting": "[9]", "value": "clearly modulated the time dependent intracellular redistribution of PKCα"}, {"measurement": "inhibition of PKCα translocation, racemate versus enantiomers", "setting": "[9]", "value": "more effective than the racemic mixture"}]}
{"smiles": "C[C@H](C(=O)O)c1cccc(Oc2ccccc2)c1", "note": "[S-Fenoprofen]", "values": [{"measurement": "Density of APPs band", "setting": "[10]", "value": "5.32 ± 1.53"}, {"measurement": "fold induction at 50 µM", "setting": "[11]", "value": 1.3}]}
{"smiles": "CC(C)Cc1ccc([C@H](C)C(=O)O)cc1", "note": "[S-ibuprofen]", "values": [{"measurement": "Bleeding site (B), column 1", "setting": "[5]; 10 mg/kg bid, 7 days, column 1", "value": 4}, {"measurement": "gastropathy (in words)", "setting": "[5]; rat, in vivo", "value": "induced serious gastric ulcers and hemorrhage"}, {"measurement": "concentration inhibiting PKC mediated histone phosphorylation", "setting": "[6]", "value": 1, "unit": "µM"}, {"measurement": "capability to inhibit cyclooxygenase (in words)", "setting": "[7]", "value": "inhibition of cyclooxygenase activity by ibuprofen resides almost exclusively in the S-enantiomer"}, {"measurement": "potency in suppressing prostaglandin formation, S- versus R-ibuprofen", "setting": "[7]; from arachidonic acid", "value": "approximately 100 times"}, {"measurement": "inhibition of foci formation, enantiomers compared to racemate", "setting": "[8]", "value": "more pronounced than that of the racemate; also recorded: more effective than the racemic mixture"}, {"measurement": "inhibition of PMA induced foci formation / neoplastic transformation", "setting": "[8]", "value": "dramatically decreased; also recorded: inhibit the neoplastic transformation; also recorded: substantially inhibited"}, {"measurement": "inhibition of PKCα translocation from cytosol to nuclear compartments", "setting": "[9]", "value": "clearly modulated the time dependent intracellular redistribution of PKCα"}, {"measurement": "inhibition of PKCα translocation, racemate versus enantiomers", "setting": "[9]", "value": "more effective than the racemic mixture"}]}
{"smiles": "O=NN(CCCl)C(=O)NC1CCCCC1", "note": "[Lomustine, 1-(2-chloro-ethyl)-3-cyclohexyl-1 nitrosourea]", "values": [{"measurement": "ionization", "setting": "[12]; physiological pH", "value": "relatively unionized at a physiological pH"}, {"measurement": "tissue levels compared to plasma levels", "setting": "[3]; 15 minutes after intravenous administration", "value": "comparable to plasma levels"}, {"measurement": "radioactivity excreted as degradation products", "setting": "[3]; oral 30 mg/m^2 to 100 mg/m^2, within 24 hours", "value": "about half"}]}
{"smiles": "C[C@@H](C(=O)O)c1cccc(Oc2ccccc2)c1", "note": "[R-Fenoprofen]", "values": [{"measurement": "Density of APPs band", "setting": "[10]", "value": "5.32 ± 1.29"}, {"measurement": "fold induction at 50 µM", "setting": "[11]", "value": 1.3}]}
{"smiles": "CC(=O)Oc1ccccc1C(=O)O", "note": "[Aspirin]", "values": [{"measurement": "APPs secretion (in words)", "setting": "[10]; 20 h", "value": "failed to show an increased secretion of APPs"}, {"measurement": "Density of APPs band", "setting": "[10]", "value": "2.92 ± 0.43"}, {"measurement": "association with decreased risk of AD", "setting": "[1]", "value": "not associated"}]}
{"smiles": "CC(C(=O)O)c1cccc(Oc2ccccc2)c1", "note": "(racemic) [RS-Fenoprofen]", "values": [{"measurement": "Density of APPs band", "setting": "[10]", "value": "6.36 ± 0.77"}, {"measurement": "fold induction at 50 µM", "setting": "[11]", "value": 1.6}]}
{"smiles": "O=NN(CCCl)C(=O)NCCCl", "note": "[Carmustine, 1,3-bis (2-chloroethyl)-1-nitrosourea]", "values": [{"measurement": "solubility (in words)", "setting": "[12]; solvent", "value": "highly soluble in alcohol and lipids, and poorly soluble in water"}]}
{"smiles": "CCCCCCCCCCCCCC(=O)O[C@@H]1[C@@H](C)[C@@]2(O)[C@@H](C=C(CO)C[C@]3(O)C(=O)C(C)=C[C@@H]23)[C@@H]2C(C)(C)[C@]12OC(C)=O", "note": "[phorbol ester]", "values": [{"measurement": "formation of APPs", "setting": "[13]", "value": "increase the formation of APPs"}, {"measurement": "production of amyloidogenic fragments containing Aβ and Aβ", "setting": "[13]", "value": "reduce the production"}]}
{"smiles": "CS(=O)(=O)OCCCCOS(C)(=O)=O", "note": "[busulfan, 1,4-butanediol dimethanesulfonate]", "values": [{"measurement": "patients obtaining hematologic remission", "setting": "[2]; previously untreated chronic myelogenous leukemia, adults", "value": "Approximately 90%"}]}
{"smiles": "N[C@H](Cc1ccc(N(CCCl)CCCl)cc1)C(=O)O", "note": "[medphalan]", "values": [{"measurement": "activity against certain animal tumors versus melphalan", "setting": "[14]", "value": "less active"}]}
